By IC50 is commonly meant the point on the concentration scale where inhibition reaches its midpoint.

The source made the active and inactive calls. The rule behind the calls is not given here.

The target in the first test is T1, Polyunsaturated fatty acid 5-lipoxygenase (Homo sapiens) (UniProt P09917).
T1 sequence (whole entry): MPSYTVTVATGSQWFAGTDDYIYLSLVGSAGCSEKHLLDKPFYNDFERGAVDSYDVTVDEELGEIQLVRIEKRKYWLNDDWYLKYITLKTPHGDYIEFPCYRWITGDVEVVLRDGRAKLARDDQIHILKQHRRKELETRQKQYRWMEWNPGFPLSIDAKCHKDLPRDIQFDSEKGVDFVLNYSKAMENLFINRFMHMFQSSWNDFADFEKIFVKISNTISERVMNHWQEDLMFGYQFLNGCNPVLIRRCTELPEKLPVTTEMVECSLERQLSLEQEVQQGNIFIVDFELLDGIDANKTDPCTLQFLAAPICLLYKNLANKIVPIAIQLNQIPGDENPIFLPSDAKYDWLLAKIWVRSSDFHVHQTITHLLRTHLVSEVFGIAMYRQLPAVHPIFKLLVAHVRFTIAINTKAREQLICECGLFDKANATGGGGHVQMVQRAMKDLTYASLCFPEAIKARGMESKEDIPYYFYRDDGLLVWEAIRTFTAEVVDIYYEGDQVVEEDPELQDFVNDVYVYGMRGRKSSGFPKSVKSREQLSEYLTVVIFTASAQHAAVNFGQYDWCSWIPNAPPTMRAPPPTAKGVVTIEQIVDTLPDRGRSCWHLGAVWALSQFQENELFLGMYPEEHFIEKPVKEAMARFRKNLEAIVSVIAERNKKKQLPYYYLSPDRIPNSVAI
Put plainly: Inhibition of 5-LO in A23187-stimulated human HEK293 cells assessed as reduction in 5-LO product level at 1 uM preincubated for 5 mins followed by A23187, arachidonic acid addition and measured after 15 mins by RP-HPLC analysis relative to control. It counts as cell-based.
On to `CCCOC(=O)/C=C/c1cc(OC)c(O)c(OC)c1`, for which the inhibition entry was “Active”. With `COc1ccccc1CCOC(=O)/C=C/c1cc(OC)c(O)c(OC)c1`, the inhibition result is “Active”.

With `COc1cc(/C=C/C(=O)OCCc2ccc(F)cc2)cc(OC)c1O`, the inhibition result is “Active”. Turning to `COc1cc(/C=C/c2nc(CCc3ccccc3)no2)cc(OC)c1O`, the inhibition result was “Active”. Same read-out and setting: next, `COc1cc(/C=C/C(=O)OCCc2ccccc2C(F)(F)F)cc(OC)c1O`: “Active”. For `COc1cc(/C=C/COCCCc2ccccc2)cc(OC)c1O`, the inhibition result is “Active”. Still for that read-out and setting: next, `COc1ccc(OC)c(/C=C/C(=O)OCCc2ccccc2)c1`: “inactive”.

Consider `COc1cc(/C=C/C(=O)OCCc2cccc(F)c2)cc(OC)c1O`, for which the inhibition entry is “Active”. The same measure, in the same setting: as for `COc1cc(/C=C/C(=O)OCCc2ccc(C(F)(F)F)cc2)cc(OC)c1O`, the entry is “Active”; as for `COc1cc(/C=C/C(=O)CCc2ccccc2)cc(OC)c1O`, “Active”.

As for `COc1cc(/C=C/C(=O)OCCc2cccc(C)c2)cc(OC)c1O`, the inhibition entry is “Active”. Still for that read-out and setting: next, `CC(c1cc2ccccc2s1)N(O)C(N)=O` (stereo not given): “Active”; `C#CCOC(=O)/C=C/c1cc(OC)c(O)c(OC)c1`: “Active”; `COc1cc(/C=C/C(=O)OCCc2ccccc2)cc(OC)c1OC`: “inactive”.

Consider `COc1cc(/C=C/C(=O)OC(C)C)cc(OC)c1O`, for which the inhibition result was “inactive”. Same read-out and setting: as for `COc1cc(CCC(=O)CCc2ccccc2)cc(OC)c1O`, the entry is “Active”. On the same count and under the same terms, as for `COC(=O)/C=C/c1cc(OC)c(O)c(OC)c1`, the entry is “inactive”; as for `COc1cc(CCC(=O)OCCc2ccccc2)cc(OC)c1O`, “Active”. On the same count and under the same terms, as for `COc1cc(C(=O)OCCc2ccccc2)cc(OC)c1O`, the entry is “inactive”; as for `COc1cc(/C=C/C(=O)OCCc2ccccc2)cc(OC)c1O`, “Active”. Consider `CCOC(=O)/C=C/c1cc(OC)c(O)c(OC)c1`, for which the inhibition entry was “inactive”. The same measure, in the same setting: as for `COc1cc(/C=C/C(=O)OCCc2ccccc2)cc(OC)c1`, the entry is “inactive”; as for `COc1cc(CC(=O)OCCc2ccccc2)cc(OC)c1O`, “inactive”; as for `COc1cc(/C=C/C(=O)NCCc2ccccc2)cc(OC)c1O`, “inactive”. Same read-out and setting: as for `COc1cc(/C=C/COCc2ccccc2)cc(OC)c1O`, the entry is “Active”; as for `COc1cc(/C=C/C(=O)OCCc2ccccc2)cc(OC)c1OC(C)=O`, “Active”; as for `COc1cc(/C=C/C(=O)OCCc2ccc(C)cc2)cc(OC)c1O`, “Active”.

On to `COc1cc(/C=C/C(=O)OCCCc2ccccc2)cc(OC)c1O`, for which the inhibition entry was “Active”. As for `COc1cc(/C=C/c2nc(Cc3ccccc3)no2)cc(OC)c1O`, the inhibition entry was “Active”.

As for `COc1cccc(/C=C/C(=O)OCCc2ccccc2)c1OC`, the inhibition result is “inactive”. As to `COc1cc(/C=C/C(=O)OCCc2cccc(C(F)(F)F)c2)cc(OC)c1O`, the inhibition entry is “Active”. On the same count and under the same terms, as for `COc1cccc(CCOC(=O)/C=C/c2cc(OC)c(O)c(OC)c2)c1`, the entry is “Active”; as for `COc1cc(/C=C/C(=O)OCCC2CCCCC2)cc(OC)c1O`, “Active”; as for `COc1ccc(CCOC(=O)/C=C/c2cc(OC)c(O)c(OC)c2)cc1`, “Active”. Take `COc1cc(/C=C/C(=O)OCCc2ccccc2F)cc(OC)c1O`: the inhibition result is “Active”. The same measure, in the same setting: as for `COc1cc(/C=C/C(=O)OCCc2ccccc2C)cc(OC)c1O`, the entry is “Active”.

The next test addresses T2, Polyunsaturated fatty acid 5-lipoxygenase (Homo sapiens, UniProt P09917).
T2 sequence (P09917 whole entry): T1 sequence (whole entry)
Nature of the test: Inhibition of 5-LO in thapsigargin stimulated human PMNL cells assessed as reduction in 5-LO product level preincubated for 5 mins followed by thapsigargin addition and measured after 15 mins by RP-HPLC analysis. It counts as cell-based.
Consider `CCCOC(=O)/C=C/c1cc(OC)c(O)c(OC)c1`, for which the IC50 stood at 710 nM. Take `COc1ccccc1CCOC(=O)/C=C/c1cc(OC)c(O)c(OC)c1`: the IC50 was found to be 250 nM.

On to `COc1cc(/C=C/c2nc(CCc3ccccc3)no2)cc(OC)c1O`, for which the IC50 was determined as 270 nM.

For the compound `COc1cc(/C=C/C(=O)OCCc2ccccc2C(F)(F)F)cc(OC)c1O`, the IC50 is 350 nM. Still for that read-out and setting: next, `COc1cc(/C=C/COCCCc2ccccc2)cc(OC)c1O`: 560 nM; `COc1cc(/C=C/C(=O)OCCc2cccc(F)c2)cc(OC)c1O`: 230 nM; `COc1cc(/C=C/C(=O)OCCc2cccc(C)c2)cc(OC)c1O`: 200 nM. For `COc1cc(CCC(=O)CCc2ccccc2)cc(OC)c1O`, the IC50 came out at 420 nM. The same measure, in the same setting: as for `COc1cc(CCC(=O)OCCc2ccccc2)cc(OC)c1O`, the figure is 590 nM; as for `COc1cc(CC(=O)OCCc2ccccc2)cc(OC)c1O`, 1100 nM. Same read-out and setting: next, `COc1cc(/C=C/C(=O)NCCc2ccccc2)cc(OC)c1O`: 960 nM; `COc1cc(/C=C/COCc2ccccc2)cc(OC)c1O`: 1100 nM. Turning to `COc1cc(/C=C/C(=O)OCCc2ccccc2)cc(OC)c1OC(C)=O`, the IC50 was found to be 270 nM. Consider `COc1cc(/C=C/C(=O)OCCCc2ccccc2)cc(OC)c1O`, for which the IC50 was 340 nM. Take `COc1cc(/C=C/c2nc(Cc3ccccc3)no2)cc(OC)c1O`: the IC50 turned out to be 300 nM.

In the case of `COc1cc(/C=C/C(=O)OCCc2cccc(C(F)(F)F)c2)cc(OC)c1O`, the IC50 stood at 200 nM.

In the case of `COc1cccc(CCOC(=O)/C=C/c2cc(OC)c(O)c(OC)c2)c1`, the IC50 amounted to 210 nM. For the compound `COc1cc(/C=C/C(=O)OCCc2ccccc2F)cc(OC)c1O`, the IC50 is 240 nM. As to `COc1cc(/C=C/C(=O)OCCc2ccccc2C)cc(OC)c1O`, the IC50 was determined as 240 nM.

Values taken from ChEMBL document CHEMBL5038646, “Structure-Activity Relationship Studies of New Sinapic Acid Phenethyl Ester Analogues Targeting the Biosynthesis of 5-Lipoxygenase Products: The Role of Phenolic Moiety, Ester Function, and Bioisosterism” (J Nat Prod, 2022).
